Measured values reported in publication PMC12044326 (Clinical Pharmacology in Drug Development, 2025).
Read-outs that look alike come from different tables or passages of the source.

Tests used:
[1] = tested on: CYP3A4; assay: PBPK elimination inputs (retrograde model, fm); set-up: species or system human; settings: PBPK input
[2] = molecular target: T1, CYP2C8 (Homo sapiens, UniProt P10632); assay: Reversible CYP inhibition in human liver microsomes
T1 sequence (P10632 1-490): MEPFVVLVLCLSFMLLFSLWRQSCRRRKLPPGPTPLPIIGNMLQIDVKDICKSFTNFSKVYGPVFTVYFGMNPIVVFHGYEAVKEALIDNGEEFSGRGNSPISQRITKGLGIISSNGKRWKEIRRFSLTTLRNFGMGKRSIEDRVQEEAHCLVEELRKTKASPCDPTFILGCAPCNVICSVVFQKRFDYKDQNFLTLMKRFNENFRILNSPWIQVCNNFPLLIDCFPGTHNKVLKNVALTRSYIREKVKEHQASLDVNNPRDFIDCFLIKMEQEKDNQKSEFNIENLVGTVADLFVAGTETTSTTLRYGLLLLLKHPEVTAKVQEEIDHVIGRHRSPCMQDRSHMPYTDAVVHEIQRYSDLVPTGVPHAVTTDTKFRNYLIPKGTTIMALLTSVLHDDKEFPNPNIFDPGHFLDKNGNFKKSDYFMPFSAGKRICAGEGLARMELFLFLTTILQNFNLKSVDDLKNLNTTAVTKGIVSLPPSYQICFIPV

[3] = molecular target: T2, UGT2B4 (Homo sapiens, UniProt P06133); settings: both, 20 min, pH 7.4
T2 sequence (P06133 24-528): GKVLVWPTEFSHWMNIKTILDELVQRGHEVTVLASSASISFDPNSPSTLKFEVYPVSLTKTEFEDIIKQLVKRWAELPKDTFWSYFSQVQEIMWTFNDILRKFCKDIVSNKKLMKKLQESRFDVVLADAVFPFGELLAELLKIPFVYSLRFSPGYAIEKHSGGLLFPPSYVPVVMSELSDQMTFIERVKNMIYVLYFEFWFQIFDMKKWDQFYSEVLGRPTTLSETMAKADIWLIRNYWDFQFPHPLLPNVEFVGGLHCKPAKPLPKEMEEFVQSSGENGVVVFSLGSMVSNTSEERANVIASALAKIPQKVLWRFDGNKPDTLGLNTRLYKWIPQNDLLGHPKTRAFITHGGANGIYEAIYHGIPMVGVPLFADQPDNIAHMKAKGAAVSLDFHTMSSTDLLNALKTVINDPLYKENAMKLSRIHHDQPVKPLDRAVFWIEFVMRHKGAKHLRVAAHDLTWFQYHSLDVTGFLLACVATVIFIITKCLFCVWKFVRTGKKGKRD

[4] = tested on: CYP1A2; settings: hepatocytes
Method: respectively; XenoTech) were treated once daily for 3 consecutive days and cultured according
to previously described methods.2-4 Each culture well was treated with supplemented modified Chee's medium (0.2 mL) containing 0.1% v/v d imethylsulfoxide (DM SO ; vehicle control),
μmol/L) or 1 of 3 known human CYP enzyme inducers (omeprazole 50 μmol/L, phenobarbital
Cultures were visualized with a
representative well from each treatment group was photographed with a PAXcam 5 (MIS, Inc.
Villa Park, IL, USA) digital camera to document morphological integrity.
β-mercaptoethanol (1:100), and the cell lysates were stored at −80°C. For each hepatocyte preparation, media from 3 wells per treatment group were aspirated, and 250 μL buf f er RLT was added to each well. The cell lysates were mixed by shaking (10 minutes at 800 rpm) and total RNA was isolated with a MagMAX-96 (Ambion/ Thermo Fisher Scientific) for Microarrays Kit using the RNeasy Mini Kit (Qiagen Inc., Germantown, MD, USA). The analysis of RNA integrity was carried out with the RNA 6000 Nano Assay Kit on an Agilent 2100 Bioanalyzer (Agilent Technologies, Inc., Santa Clara, CA, USA). […]
prepared samples were stored at −20°C prior to analysis by quantitative real-time (qRT)- […]

[5] = molecular target: T3, OATP1B1 (Homo sapiens, UniProt Q9Y6L6)
T3 sequence (Q9Y6L6 1-691): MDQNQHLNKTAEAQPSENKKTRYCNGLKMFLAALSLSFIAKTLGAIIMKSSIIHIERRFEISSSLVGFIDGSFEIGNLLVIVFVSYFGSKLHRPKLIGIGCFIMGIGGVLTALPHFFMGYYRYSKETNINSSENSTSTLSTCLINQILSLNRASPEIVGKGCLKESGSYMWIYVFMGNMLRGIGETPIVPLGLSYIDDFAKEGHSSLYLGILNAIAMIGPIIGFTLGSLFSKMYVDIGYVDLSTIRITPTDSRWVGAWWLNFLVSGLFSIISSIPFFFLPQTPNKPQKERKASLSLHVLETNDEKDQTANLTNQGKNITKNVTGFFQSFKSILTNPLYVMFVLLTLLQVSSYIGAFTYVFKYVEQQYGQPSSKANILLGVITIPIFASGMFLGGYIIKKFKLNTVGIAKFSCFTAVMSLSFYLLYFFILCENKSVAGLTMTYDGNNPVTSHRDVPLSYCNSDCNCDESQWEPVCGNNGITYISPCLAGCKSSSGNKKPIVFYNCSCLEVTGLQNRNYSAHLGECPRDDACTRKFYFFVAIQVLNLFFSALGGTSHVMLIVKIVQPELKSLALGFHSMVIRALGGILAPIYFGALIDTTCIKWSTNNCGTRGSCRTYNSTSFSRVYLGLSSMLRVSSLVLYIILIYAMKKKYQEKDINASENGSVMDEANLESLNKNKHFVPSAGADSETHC

[6] = molecular target: T4, OATP1B3 (Homo sapiens, UniProt Q9NPD5)
T4 sequence (Q9NPD5 1-702): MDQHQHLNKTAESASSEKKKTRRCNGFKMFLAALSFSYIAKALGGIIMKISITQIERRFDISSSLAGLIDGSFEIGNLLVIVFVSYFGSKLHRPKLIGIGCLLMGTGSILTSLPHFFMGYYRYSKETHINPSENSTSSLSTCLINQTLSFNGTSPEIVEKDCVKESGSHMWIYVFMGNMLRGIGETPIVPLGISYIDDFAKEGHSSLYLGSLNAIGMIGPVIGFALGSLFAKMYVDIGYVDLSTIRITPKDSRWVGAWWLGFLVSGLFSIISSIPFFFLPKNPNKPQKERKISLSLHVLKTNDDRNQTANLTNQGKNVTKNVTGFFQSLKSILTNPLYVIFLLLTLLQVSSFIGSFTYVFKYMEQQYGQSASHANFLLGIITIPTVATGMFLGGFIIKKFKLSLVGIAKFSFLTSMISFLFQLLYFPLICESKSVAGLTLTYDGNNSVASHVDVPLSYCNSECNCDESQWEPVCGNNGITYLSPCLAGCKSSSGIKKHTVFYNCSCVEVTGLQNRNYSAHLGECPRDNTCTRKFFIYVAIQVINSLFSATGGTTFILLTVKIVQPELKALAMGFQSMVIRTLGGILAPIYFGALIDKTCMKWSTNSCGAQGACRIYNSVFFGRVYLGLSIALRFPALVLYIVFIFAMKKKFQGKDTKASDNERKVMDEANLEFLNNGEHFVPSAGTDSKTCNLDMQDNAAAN

[7] = ref 6 of supplement, cited from earlier work; for AUC0-inf observed / Cmax observed: geometric mean; for tmax observed: median

**Q.** For O=C(c1cccnc1-c1ccncc1)N1CCC(O)(Cc2ccccc2)CC1 [Soticlestat], which fmCYP3A [1] is on record?
**A.** 0.1

**Q.** And the Ki [2]?
**A.** 14.5 µM

**Q.** What about the fumic ([2]; human) of the same molecule?
**A.** 0.98

**Q.** And the “inhibition of CYP2C8” value ([2]; microsomes)?
**A.** low double‐digit micromolar values

**Q.** And the “fm of total UGT mediated glucuronidation via UGT2B4” value [3]?
**A.** ~90%

**Q.** And the “induction of CYP1A2” value [4]?
**A.** nor did soticlestat induce

**Q.** What about the “inhibition of OATP1B1” value [5] of the same molecule?
**A.** did not demonstrate clinically relevant inhibition

**Q.** And the “substrate for OATP1B3” value [6]?
**A.** not a substrate

**Q.** And the AUC0-inf observed ([7]; 15 mg single oral dose)?
**A.** 22.6 ng·h/mL

**Q.** What about the Cmax observed ([7]; 15 mg single oral dose) of the same molecule?
**A.** 33.5 ng/mL

**Q.** And the tmax observed ([7]; 15 mg single oral dose)?
**A.** 15 min

**Q.** What about the AUC0-inf observed ([7]; 50 mg single oral dose) of the same molecule?
**A.** 134 ng·h/mL

**Q.** What about the Cmax observed ([7]; 50 mg single oral dose) of the same molecule?
**A.** 167 ng/mL

**Q.** And the tmax observed ([7]; 50 mg single oral dose)?
**A.** 15 min

**Q.** And the AUC0-inf observed ([7]; 200 mg single oral dose)?
**A.** 591 ng·h/mL

**Q.** What about the Cmax observed ([7]; 200 mg single oral dose) of the same molecule?
**A.** 527 ng/mL

**Q.** And the tmax observed ([7]; 200 mg single oral dose)?
**A.** 15 min

**Q.** And the AUC0-inf observed ([7]; 600 mg single oral dose)?
**A.** 4937 ng·h/mL

**Q.** What about the Cmax observed ([7]; 600 mg single oral dose) of the same molecule?
**A.** 3847 ng/mL

**Q.** And the tmax observed ([7]; 600 mg single oral dose)?
**A.** 30 min

**Q.** What about the AUC0-inf observed ([7]; 900 mg single oral dose) of the same molecule?
**A.** 7454 ng·h/mL

**Q.** What about the Cmax observed ([7]; 900 mg single oral dose) of the same molecule?
**A.** 4814 ng/mL

**Q.** And the AUC0-inf observed ([7]; 1350 mg single oral dose)?
**A.** 12,699 h.ng/mL

**Q.** And the Cmax observed ([7]; 1350 mg single oral dose)?
**A.** 7672 ng/mL

**Q.** What about the tmax observed ([7]; 1350 mg single oral dose) of the same molecule?
**A.** 48 min
